Source: ChEMBL document CHEMBL1201862, “PubChem BioAssay data set” (2004)
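How tested: cells in 96-well plates exposed to compound for 48 hours at five concentrations. GI50 is the concentration that inhibits growth by half.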 Activity calls are given as the source filed them. No stated cut-off is given here; in the data, active = GI50 up to about 1.1 µM and inactive = higher.

Key:
Test in all cases: NCI-60 cell line screen, 48 h
786-0 = test system: 786-0
A498 = test system: A498
A549 = test system: A549
ACHN = test system: ACHN
BT-549 = test system: BT-549
CAKI-1 = test system: CAKI-1
CCRF-CEM = test system: CCRF-CEM
COLO 205 = test system: COLO 205
DU-145 = test system: DU-145
EKVX = test system: EKVX
HCC 2998 = test system: HCC 2998
HCT-116 = test system: HCT-116
HCT-15 = test system: HCT-15
HL-60 = test system: HL-60
HOP-62 = test system: HOP-62
HOP-92 = test system: HOP-92
HT-29 = test system: HT-29
Hs-578T = test system: Hs-578T
IGROV-1 = test system: IGROV-1
K562 = test system: K562
KM12 = test system: KM12
LOX IMVI = test system: LOX IMVI
M14 = test system: M14
MCF7 = test system: MCF7
MDA-MB-231 = test system: MDA-MB-231
MDA-MB-435 = test system: MDA-MB-435
MDA-N = test system: MDA-N
MOLT-4 = test system: MOLT-4
NCI-H226 = test system: NCI-H226
NCI-H23 = test system: NCI-H23
NCI-H460 = test system: NCI-H460
NCI-H522 = test system: NCI-H522
NCI/ADR-RES = test system: NCI/ADR-RES
OVCAR-3 = test system: OVCAR-3
OVCAR-4 = test system: OVCAR-4
OVCAR-5 = test system: OVCAR-5
OVCAR-8 = test system: OVCAR-8
PC-3 = test system: PC-3
RPMI-8226 = test system: RPMI-8226
RXF 393 = test system: RXF 393
SF-268 = test system: SF-268
SF-295 = test system: SF-295
SF-539 = test system: SF-539
SK-MEL-28 = test system: SK-MEL-28
SK-MEL-2 = test system: SK-MEL-2
SK-MEL-5 = test system: SK-MEL-5
SK-OV-3 = test system: SK-OV-3
SN12C = test system: SN12C
SNB-19 = test system: SNB-19
SNB-75 = test system: SNB-75
SR = test system: SR
SW-620 = test system: SW-620
T47D = test system: T47D
TK-10 = test system: TK-10
U-251 = test system: U-251
UACC-257 = test system: UACC-257
UACC-62 = test system: UACC-62
UO-31 = test system: UO-31
Malme-3M = test system: Malme-3M

Measured: GI50

CC(=O)c1ccc(Nc2c3c(nc4ccccc24)CCCC3)cc1
inactive: 786-0 25.7 µM | A498 > 31.8 µM | A549 19 µM | ACHN 38.3 µM | BT-549 9.79 µM | CAKI-1 16.4 µM | CCRF-CEM 15.9 µM | COLO 205 11.7 µM | DU-145 20 µM | EKVX 28 µM | HCC 2998 42.1 µM | HCT-116 13.2 µM | HL-60 2.73 µM | HOP-62 10.3 µM | HOP-92 21.1 µM | HT-29 10.2 µM | Hs-578T 27.9 µM | IGROV-1 3.79 µM | K562 16.4 µM | KM12 7.29 µM | LOX IMVI 10 µM | M14 12.6 µM | MCF7 18.7 µM | MDA-MB-231 19.6 µM | MDA-MB-435 1.96 µM | MDA-N 2.72 µM | MOLT-4 9.59 µM | NCI-H226 14 µM | NCI-H23 11.3 µM | NCI-H460 17.5 µM | NCI-H522 3.85 µM | NCI/ADR-RES 10.4 µM | OVCAR-3 11.5 µM | OVCAR-4 41.9 µM | OVCAR-5 13.5 µM | OVCAR-8 17.7 µM | PC-3 41.1 µM | RPMI-8226 27.6 µM | RXF 393 20.5 µM | SF-268 40.2 µM | SF-295 11.2 µM | SF-539 26.6 µM | SK-MEL-28 50.7 µM | SK-MEL-2 24 µM | SK-MEL-5 14.9 µM | SK-OV-3 26.7 µM | SN12C 22.9 µM | SNB-19 20.2 µM | SNB-75 4.12 µM | SR 2.47 µM | SW-620 16.9 µM | T47D 10.1 µM | TK-10 42.5 µM | U-251 19.1 µM | UACC-257 24.5 µM | UACC-62 17.1 µM | UO-31 5.58 µM
13.7 µM: HCT-15

COc1ccccc1/C=C/C1=NN(c2cccc(S(=O)(=O)O)c2)C2(C1)SCC(=O)N2c1nc2ccccc2s1 (stereo not drawn)
67.9 µM: HCT-15
inactive: 786-0 > 100 µM | A498 83.4 µM | A549 84.3 µM | ACHN 55.7 µM | BT-549 56.1 µM | CAKI-1 > 100 µM | CCRF-CEM 23 µM | COLO 205 67.8 µM | DU-145 89.7 µM | EKVX 68.2 µM | HCC 2998 60.3 µM | HCT-116 > 100 µM | HL-60 50.2 µM | HOP-92 23.3 µM | HT-29 97.9 µM | Hs-578T > 100 µM | IGROV-1 21.4 µM | K562 36.2 µM | KM12 41.1 µM | LOX IMVI 53.5 µM | M14 > 100 µM | MCF7 44.6 µM | MDA-MB-231 > 100 µM | MDA-MB-435 > 100 µM | MDA-N > 100 µM | MOLT-4 36.7 µM | Malme-3M > 100 µM | NCI-H226 31.7 µM | NCI-H23 30.3 µM | NCI-H460 61.9 µM | NCI-H522 36.7 µM | NCI/ADR-RES > 100 µM | OVCAR-4 86.7 µM | OVCAR-5 > 100 µM | OVCAR-8 53.2 µM | PC-3 70.1 µM | RPMI-8226 23.6 µM | RXF 393 > 100 µM | SF-268 > 100 µM | SF-539 > 100 µM | SK-MEL-28 > 100 µM | SK-MEL-2 > 100 µM | SK-MEL-5 64.4 µM | SN12C > 100 µM | SNB-19 > 100 µM | SNB-75 > 100 µM | SR 24.5 µM | SW-620 > 100 µM | T47D 20.4 µM | TK-10 84.3 µM | U-251 52.6 µM | UACC-257 97.7 µM | UACC-62 53.8 µM | UO-31 71.9 µM
